Experimental data published in patent US20240358733A1, “APPLICATION OF TYPHANEOSIDE IN PREPARATION OF MEDICINE FOR URIC ACID-LOWERING AND/OR KIDNEY INJURY” (Institute of Chinese Materia Medica, China Academy of …, priority 2023, published 2024).

Key:
rats with hyperuricemia [1] = experiment: Pathological examination of rat kidney tissue, HE staining; assay type: in vivo; settings: FIG. 2, HE staining, in words
Experimental: (§1) The establishment of the model as well as the experimental grouping and administration were the same as in Example 1.
(§2) (2) Pathological examination of kidney tissue: anesthetize rats, dissect, and remove kidney tissue. The kidney tissues were fixed with 10% neutral formalin. After sufficient fixation, sampling, gradient dehydration, xylene transparency, paraffin embedding, and preparation of 3 μm paraffin sections were performed according to routine procedures. The kidney tissue lesions as well as urate deposition in the kidney tissues were examined by light microscopy using HE (hematoxylin & eosin) staining and hexamine silver staining, respectively.

rats with hyperuricemia [2] = experiment: Urate deposition in rat kidney tissues, hexamine silver staining; assay type: in vivo; settings: FIG. 1, hexamine silver staining, 25 and 50 mg/kg, in words
Experimental: as §1, §2

[3] = system: rats with hyperuricemic kidney injury; experiment: Kidney function biochemical indicators (serum BUN, SCr) in rats with hyperuricemic kidney injury; assay type: in vivo, rat; settings: for BUN / SCr: serum; for BUN: model group 11.87 ± 2.27; for SCr: model group 49.09 ± 9.42
Description: as §1
(1) Kidney function biochemical indicators detection: the method of blood sampling and serum collection was the same as in Example 1, and an Automatic Chemical Analysis was used to detect the content of serum creatinine (SCr) by using the creatine oxidase method, and to detect the content of blood urea nitrogen (BUN) by using the urease method and the kinetic method.

rats with hyperuricemia [4] = experiment: Blood uric acid level in rats with adenine combined with ethambutol-induced hyperuricemia; assay type: in vivo, rat; settings: for Blood uric acid: serum, mean±SD, model group 144.43 ± 31.20
Experimental: There were 48 Male SPF grade SD rats, weighing 200-220 g, purchased from Beijing Vital River Laboratory Animal Technology Co., Ltd., license No. SCXK (Beijing) 2016-0006. The animals were housed in a barrier environment animal laboratory, with automatic temperature control (temperature 20-26° C.), relative humidity 40-70%, and full fresh air. Artificial light was adopted with a 12-hour light-dark cycle. Group experiments were started after 1 day of acclimatization. Animals were fed with standard rat pellet feed, provided by Beijing Keao Xieli Feed Co. Ltd., with purified water.
The rats were randomly divided into 6 groups of 8 rats each, which were control group, model group, typhaneoside low dose group (25 mg/kg) and typhaneoside high dose group (50 mg/kg), isorhamnetin low dose group (25 mg/kg) and isorhamnetin high dose group (50 mg/kg).
Adenine was purchased from Sigma-Aldrich (USA), and 0.5% CMC-Na was used to formulate adenine into a suspension at a concentration of 20 mg/mL, ready-to-use, with an administration volume of 5 mL/kg and a dosage of 100 mg/kg. Ethambutol hydrochloride tablets were purchased from Chengdu Jinhua Pharmaceutical Co., Ltd, and 0.5% CMC-Na was used to formulate ethambutol hydrochloride tablets into a suspension at a concentration of 50 mg/ml, ready-to-use, with an administration volume of 5 mL/kg and a dosage of 250 mg/kg. […]
Observation and detection indicators: fasting for 16 hours after the last administration, blood was collected from the abdominal aorta of rats in each group, centrifuged at 3500 rpm for 15 minutes after standing, separated and collected serum, and the content of uric acid in the serum was measured using an Automatic Chemical Analysis.
Statistical methods: data were expressed as mean±standard deviation (x±S) and analyzed by one-way ANOVA. […]

[5] = high dose 50 mg/kg by gavage once a day for 7 days
[6] = low dose 25 mg/kg by gavage once a day for 7 days

SMILES: COc1cc(-c2oc3cc(O)cc(O)c3c(=O)c2O)ccc1O [Isorhamnetin, isorhamnetin]
- Kidney tissue pathological changes (rats with hyperuricemia [1]; high dose group 50 mg/kg): severe renal tubular dilatation and epithelial cell detachment were still observed
- Kidney tissue pathological changes (rats with hyperuricemia [1]; low dose group 25 mg/kg): severe renal tubular dilatation and epithelial cell detachment were still observed
- Deposited urate crystals in kidney tissue compared with the model group (rats with hyperuricemia [2]): only slightly reduced
- Serum BUN level compared with the model group ([3]; 25 and 50 mg/kg, in words): did not show significant reduction
- Serum SCr level compared with the model group ([3]; 25 and 50 mg/kg, in words): did not show significant reduction
- BUN [3, 5]: 8.26 ± 3.99 mmol/L
- SCr [3, 5]: 47.12 ± 12.00 µmol/L
- BUN [3, 6]: 7.90 ± 2.48 mmol/L
- SCr [3, 6]: 41.66 ± 5.72 µmol/L
- Effect on the blood uric acid level compared with the model group (rats with hyperuricemia [4]; different doses (25 and 50 mg/kg), in words): did not show a significant reducing effect
- Blood uric acid (rats with hyperuricemia [4]; [5]): 105.74 ± 42.62 µmol/L
- Blood uric acid (rats with hyperuricemia [4]; [6]): 118.56 ± 26.76 µmol/L
